From publication PMC10986499, “Unravelling HetC as a peptidase-based ABC exporter driving functional cell differentiation in the cyanobacterium Nostoc PCC 7120” (Microbiology Spectrum, 2024)

Assays:
[1] = molecular target: T1, HetC (Nostoc sp. PCC 7120 = FACHB-418, UniProt A0ACD7RTN5); assay: chromogenic peptidase assay at […] nm with purified HetCNTD, […] substrate; assay type: biochemical
T1 construct: HetCNTD, N-terminal domain (first 480 residues; includes C39 peptidase domain), hexa-his tagged
T1 sequence (A0ACD7RTN5 1-480): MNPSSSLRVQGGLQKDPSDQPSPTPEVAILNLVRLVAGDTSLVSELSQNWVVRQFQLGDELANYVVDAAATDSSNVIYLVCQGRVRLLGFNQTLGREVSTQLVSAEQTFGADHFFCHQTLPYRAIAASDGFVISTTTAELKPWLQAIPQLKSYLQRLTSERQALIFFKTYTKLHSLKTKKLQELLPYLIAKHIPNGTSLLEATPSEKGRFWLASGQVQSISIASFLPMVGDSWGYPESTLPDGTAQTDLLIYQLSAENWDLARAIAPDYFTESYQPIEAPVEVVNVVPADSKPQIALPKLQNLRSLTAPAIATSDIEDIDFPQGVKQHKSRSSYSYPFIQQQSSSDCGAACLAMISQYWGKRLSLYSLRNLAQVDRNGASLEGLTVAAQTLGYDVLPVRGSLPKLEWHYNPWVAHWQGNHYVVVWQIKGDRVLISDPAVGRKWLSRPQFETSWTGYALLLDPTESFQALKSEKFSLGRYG

[2] = molecular target: T2, HetC (Nostoc sp. PCC 7120 = FACHB-418, UniProt A0ACD7RTN5); assay: ITC (triplicate), supported by nanoDSF shift (ΔTm […] °C at […]); assay type: binding
T2 construct: HetCNTD, N-terminal domain (first 480 residues)

chromogenic peptidase assay at 405 nm with purified HetCNTD, 1 mM substrate [1] | Kd [2] | SMILES
0.22 ± 0.08 pmol/min/µg of protein |  | N=C(N)NCCC[C@H](N)C(=O)Nc1ccc([N+](=O)[O-])cc1 [L-Arginine p-nitroanilide]
 | ~59 µM | Nc1nc2c(ncn2[C@@H]2O[C@H](COP(=O)(O)OP(=O)(O)O)[C@@H](OP(=O)(O)OP(=O)(O)O)[C@H]2O)c(=O)[nH]1 [ppGpp]
